Reference: US5919770A, “Metabolites of ginseng saponins by human intestinal bacteria and its preparation for an anticancer” (Il Hwa Co., Ltd., priority 1996, dated 1999)

Legend:
[1] = tested on: bovine artery endotheliocyte (BAE); assay: Inhibition on the migration of bovine artery endotheliocyte (vascularization of tumor); format: cell-based; conditions: for Migration-inhibition (% control), IC10: at the 10% inhibitory concentration (IC10); for Migration-inhibition (% control), IC10 / Migration-inhibition (% control), IC50: 24 hours; for Migration-inhibition (% control), IC50: at the 50% inhibitory concentration (IC50)
Procedure: Inhibition on the vascularization of tumor (Test for the inhibition on the migration)
Bovine artery endotheliocyte (BAE) was used for this experiment. BAE (5×10^3 cells) was cultured in 6-well plate for 24 hours and cells attached to the plate were detached by a razor. Said medium was replaced by a new one and after one hour, a solution of intestinal flora metabolite of ginseng saponin was added to the desired inhibitory concentration of 10% and 50%, respectively for 24-hour cultivation. After completing the cultivation, cells were fixed with methanol, stained with Giemsa method and counted the cells migrated from the detached line under microscope.

Human lymphocyte (HL) = assay: Inhibition on the proliferation of human lymphocyte (HL), MTT; format: cell-based; conditions: 24 hours
Procedure: (§1) Inhibition on the vascularization of tumor (Test for the inhibition on the proliferation)
(§2) Human lymphocyte (HL), leukemia cell line (K562) and bovine artery endotheliocyte (BAE) were used for this experiment. HL (1×10^5 cells), leukemia cell line (K562) (2×10^5 cells) and BAE (5×10^3 cells) were cultured in a medium (HL, K562: RPMI 1640 medium containg 10% fetal bovine, BAE: DMEM medium containing 10% fetal bovine) containing intestinal flora metabolites of ginseng saponin concentrated with 2-fold dilution in 5% CO2 saturated with steam (HL, K562: 24 hours, BAE: 72 hours). The number of each survived cell was purified by MTT method to calculate 50% inhibition concentration (IC50), impaired rate of cells (IC50 (HL)/IC50 (BAE) and IC50 (K562)/IC50 (BAE).

[2] = tested on: leukemia cell line (K562); assay: Inhibition on the proliferation of leukemia cell line K562, MTT; format: cell-based; conditions: for IC50: Homo sapiens, K562, 24 hours, MTT; for inhibitory activities on the proliferation of tumor cells: in words
Procedure: as §1, §2

[3] = tested on: leukemia cell line (P388); assay: Antitumor activity of mouse spleen lymphocytes on leukemia cell line P388 (MTT); format: cell-based, mice; conditions: for activity at 2.5 µM: P388, 2.5 μM for 16 hours (Compound K 1.56, Compound Y 1.86, Ginsenoside Mc 1.86, 20(S)-protopanaxatriol 1.19 μg/ml), control 31.3%; for fold induction at 2.5 µM: P388, 16 h, read-out: Antitumor activity, times as high as control
Procedure: Antitumor activity on leukemia cell line (P388) in lymphocyte of mice
Spleen lymphocytes of mice and leukemia cell line (P388) were used for this experiment. Spleen lymphocytes (4×10^6 cells) and leukemia cells (P388) (2×10^8 cells) were cultured in a medium (RPMI 1640 supplemented with 20 μM mercaptoethanol and 10% fetal bovine serum) containing intestinal flora metabolite of ginseng saponin (2.5 μM) in 5% CO2 saturated with steam for 16 hours. Aside from this, same numbers of spleen lymphocytes or leukemia cell line were cultured in a medium containing intestinal flora metabolite of ginseng saponin in same is concentration as a control. The number of each survived cell was purified by MTT method to calculate impaired rate of cells on leukemia cells (P388) of lymphocytes.

[4] = tested on: Human adenosarcoma tissue cell (HT1080); assay: Inhibition on the extravasation of basement membrane (haptoinvasion, matrigel/FN filter); format: cell-based; conditions: for IC50 / inhibition at 10 µM / inhibition at 100 µM / inhibition at 1000 µM / inhibition at 1 µM: Homo sapiens; for IC50: HT-1080, 4 h, 50% inhibition of extravasation, read-out: ED50 (50% extravasation-inhibitory concentration); for inhibition at 10 µM / inhibition at 100 µM / inhibition at 1000 µM / inhibition at 1 µM: HT-1080, read-out: Inhibition rate (%)
Procedure: Inhibition on the extravasation of basement membrane
The transwell culture chamber was used for this experiment with a haptoinvasion method (reference: Cancer Res., 47, 3239, (1987)). The lower side of a filter having a hole of 8.0 μm in diameter was coated with 5 μg of matrigel for the fabrication of matrigel/FN filter. Human […] tissue cell (HT1080), treated in the intestinal flora metabolite of ginseng saponin in a concentration of 1-1000 μM at 37° C. for 30 minutes, was charged to the upper side of each filter with 1×10^5 cells/100 μL. Then, said filters were added to 24-well plate having 600 μL of MEM medium supplemented with 0.1% bovine serum albumin and them cultured for 4-hour cultivation. After completing the cultivation, cells were fixed with methanol and stained with hematoxylin, a tissue staining agent. Following the removal of cells at the upper side with a cotton pole, cells infiltrating into the lower side were counted under microscope.

[5] = tested on: bovine artery endotheliocyte (BAE); assay: Inhibition on the proliferation of bovine artery endotheliocyte (BAE), MTT; format: cell-based; conditions: for IC50: Bos taurus, BAE, 72 hours, MTT; for IC50 (C)/IC50 (BAE), C = HL: ratio IC50 (HL)/IC50 (BAE); for IC50 (C)/IC50 (BAE), C = K562: ratio IC50 (K562)/IC50 (BAE)
Procedure: as §1, §2

[6] = Toxicity in animal experiments with rats and mice
cancer cells = conditions: Japanese Patent No. 93-9123, Sato et al. 1994; cited from earlier work
liver cancer cells = conditions: Japanese Patent No. 89-28759; cited from earlier work

Compound	Migration-inhibition (% control), IC10 [1]	Migration-inhibition (% control), IC50 [1]	IC50 (Human lymphocyte (HL))	IC50 [2]	activity at 2.5 µM [3]	fold induction at 2.5 µM [3]	No. of infiltrated cancer cell/field ([4]; 1 μM)	No. of infiltrated cancer cell/field ([4]; 10 μM)	No. of infiltrated cancer cell/field ([4]; 100 μM)	No. of infiltrated cancer cell/field ([4]; 1000 μM)	IC50 [4]	inhibition at 10 µM ([4]; 10 μM)	inhibition at 100 µM ([4]; 100 μM)	inhibition at 1000 µM ([4]; 1000 μM)	IC50 [5]	IC50 (C)/IC50 (BAE), C = HL [5]	IC50 (C)/IC50 (BAE), C = K562 [5]	also measured
CC(C)=CCC[C@](C)(O)[C@H]1CC[C@]2(C)[C@@H]1[C@H](O)C[C@@H]1[C@@]3(C)CC[C@H](O)C(C)(C)[C@@H]3[C@@H](O)C[C@]12C [20(S)-protopanaxatriol]	-1.6 % control	30.0 % control	280 µM	49 µM	82.4%	2	103 ± 14 cell/field	93 ± 7 cell/field	18 ± 4 cell/field	1 ± 1 cell/field	48 µM	4%	81%	99%	36 µM	7.8	1.4	inhibitory activities on the proliferation of tumor cells [2]: exhibited inhibitory activities on the proliferation of tumor cells
CC(C)=CCC[C@](C)(O[C@@H]1O[C@H](CO)[C@@H](O)[C@H](O)[C@H]1O)[C@H]1CC[C@]2(C)[C@@H]1[C@H](O)C[C@@H]1[C@@]3(C)CC[C@H](O)C(C)(C)[C@@H]3CC[C@]12C [Compound K]	4.6 % control	43.2 % control	45 µM	26 µM	51.5%	1.6	73 ± 4 cell/field	45 ± 9 cell/field	0 cell/field		3.2 µM	62%	100%		28 µM	1.7	1.6	inhibitory activity of migration ([1]; in words, control Suramin): more potent inhibitory activity of migration than Suramin; inhibition at 1 µM ([4]; 1 μM): 38%
CC(C)=CCC[C@](C)(O[C@@H]1O[C@H](CO[C@@H]2OC[C@H](O)[C@H](O)[C@H]2O)[C@@H](O)[C@H](O)[C@H]1O)[C@H]1CC[C@]2(C)[C@@H]1[C@H](O)C[C@@H]1[C@@]3(C)CC[C@H](O)C(C)(C)[C@@H]3CC[C@]12C [Compound Y, 20-0-[α-L-arabinopyranosyl (1→6)-β-D-glucopyranosyl]-20(S)-protopanaxadiol]	-3.7 % control	28.9 % control	83 µM	78 µM	56.6%	1.8	125 ± 7 cell/field	92 ± 11 cell/field	24 ± 2 cell/field	0 cell/field	31 µM	21%	62%	100%	32 µM	2.6	2.6	
CC(C)=CCC[C@](C)(O[C@@H]1O[C@H](CO[C@@H]2O[C@@H](CO)[C@H](O)[C@H]2O)[C@@H](O)[C@H](O)[C@H]1O)[C@H]1CC[C@]2(C)[C@@H]1[C@H](O)C[C@@H]1[C@@]3(C)CC[C@H](O)C(C)(C)[C@@H]3CC[C@]12C [Ginsenoside Mc, 20-0-[α-L-arabinofuranosyl(1→6)-β-D-glucopyranosyl-20(S)-protopanaxadiol]]	-1.6 % control	30.0 % control	220 µM	480 µM	63.3%	2	114 ± 12 cell/field	44 ± 7 cell/field	3 ± 1 cell/field	0 cell/field	7.6 µM	62%	97%	100%	26 µM	8.5	18	inhibitory activities on the proliferation of tumor cells [2]: exhibited inhibitory activities on the proliferation of tumor cells; inhibition at 1 µM ([4]; 1 μM): 3%; toxicity [6]: nearly negligible
Cc1ccc(C(=O)Nc2ccc(S(=O)(=O)O)c3cc(S(=O)(=O)O)cc(S(=O)(=O)O)c23)cc1NC(=O)c1cccc(NC(=O)Nc2cccc(C(=O)Nc3cc(C(=O)Nc4ccc(S(=O)(=O)O)c5cc(S(=O)(=O)O)cc(S(=O)(=O)O)c45)ccc3C)c2)c1 [Suramin, reference compound]	-3.8 % control	37.1 % control																
CC(C)=CCC[C@](C)(O[C@@H]1O[C@H](CO[C@@H]2OC[C@H](O)[C@H](O)[C@H]2O)[C@@H](O)[C@H](O)[C@H]1O)[C@H]1CC[C@]2(C)[C@@H]1[C@H](O)C[C@@H]1[C@@]3(C)CC[C@H](O[C@@H]4O[C@H](CO)[C@@H](O)[C@H](O)[C@H]4O[C@@H]4O[C@H](CO)[C@@H](O)[C@H](O)[C@H]4O)C(C)(C)[C@@H]3CC[C@]12C [ginsenoside Rb2]																		inhibition of vascularization of tumors, extravasation and metastasis of cancer cells (cancer cells): inhibit the vascularization of tumors and extravasation of cancer cells including inhibitory actions on the metastatis of cancer cells
CC(C)=CCC[C@@](C)(O)[C@H]1CC[C@]2(C)[C@@H]1[C@H](O)C[C@@H]1[C@@]3(C)CC[C@H](O[C@@H]4O[C@H](CO)[C@@H](O)[C@H](O)[C@H]4O[C@@H]4O[C@H](CO)[C@@H](O)[C@H](O)[C@H]4O)C(C)(C)[C@@H]3CC[C@]12C [ginsenoside Rg3, 3-0-[β-D-glucopyranosyl(1→2)-β-D-glucopyranosyl]-20(R)-protopanaxadiol]																		inhibition of vascularization of tumors, extravasation and metastasis of cancer cells (cancer cells): inhibit the vascularization of tumors and extravasation of cancer cells including inhibitory actions on the metastatis of cancer cells
CC(C)=CCC[C@](C)(O)[C@H]1CC[C@]2(C)[C@@H]1[C@H](O)C[C@@H]1[C@@]3(C)CC[C@H](O[C@@H]4O[C@H](CO)[C@@H](O)[C@H](O)[C@H]4O)C(C)(C)[C@@H]3CC[C@]12C [ginsenoside Rh2, 3-0-β-D-glucopyranosyl-20(s)-protopanaxadiol]																		inhibition of the proliferation of liver cancer cells (liver cancer cells): inhibit the proliferation of liver cancer cells
